# Laboratory results published in patent publication US6369047B2, “Androgenic steroid compounds and a method of making and using the same” (Research Triangle Institute, priority 1997, dated 2002).
# Columns and labels:
# immature female rats = test: Estrogenic Activity, subcutaneous administration to immature female rats; format: in vivo, rat; conditions: Estradiol = 100
# Procedure: (§1) Additionally, Estrogen RBA was determined by relative binding (Estradiol=100) to estrogen receptor from immature female rat uterus, while Estrogenic Activity was determined by subcutaneous administration to immature female rats (Estradiol=100).
# [1] = target: T1, androgen receptor from rat ventral prostate (Rattus norvegicus, UniProt P15207); test: Androgen RBA: relative binding to androgen receptor; conditions: Dihydrotestosterone = 100
# T1 construct: androgen receptor from rat ventral prostate; from tissue; host or cells: rat ventral prostate
# T1 sequence (P15207 1-902): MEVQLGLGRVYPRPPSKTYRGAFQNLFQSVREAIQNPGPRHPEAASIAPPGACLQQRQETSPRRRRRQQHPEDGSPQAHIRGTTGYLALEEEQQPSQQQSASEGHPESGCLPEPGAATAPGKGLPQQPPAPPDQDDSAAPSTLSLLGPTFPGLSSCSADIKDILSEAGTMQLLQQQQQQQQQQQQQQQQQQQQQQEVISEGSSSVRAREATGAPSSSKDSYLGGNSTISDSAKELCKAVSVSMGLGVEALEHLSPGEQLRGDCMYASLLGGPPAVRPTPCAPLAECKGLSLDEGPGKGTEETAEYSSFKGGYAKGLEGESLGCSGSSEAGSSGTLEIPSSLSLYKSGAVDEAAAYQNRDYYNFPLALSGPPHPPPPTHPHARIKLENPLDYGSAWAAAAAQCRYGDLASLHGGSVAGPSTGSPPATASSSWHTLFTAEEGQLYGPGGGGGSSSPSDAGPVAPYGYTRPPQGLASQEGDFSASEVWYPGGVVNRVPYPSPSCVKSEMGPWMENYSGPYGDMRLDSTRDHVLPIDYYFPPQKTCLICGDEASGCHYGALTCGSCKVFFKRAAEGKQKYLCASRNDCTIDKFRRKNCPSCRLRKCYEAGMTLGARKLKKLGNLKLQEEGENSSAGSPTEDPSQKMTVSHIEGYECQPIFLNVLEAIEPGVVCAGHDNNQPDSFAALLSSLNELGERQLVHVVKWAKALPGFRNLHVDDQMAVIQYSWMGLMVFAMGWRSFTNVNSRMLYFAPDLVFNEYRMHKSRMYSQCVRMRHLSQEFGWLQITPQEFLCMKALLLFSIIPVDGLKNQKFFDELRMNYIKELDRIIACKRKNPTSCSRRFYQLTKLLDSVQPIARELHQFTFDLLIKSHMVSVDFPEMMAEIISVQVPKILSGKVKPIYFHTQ
# [2] = system: immature castrated male rats; test: Androgenic Activity, subcutaneous administration to immature castrated male rats; format: in vivo, rat; conditions: for Androgenic Activity, Levator Ani / Androgenic Activity, Seminal Vesicles / Androgenic Activity, Ventral Prostate: subcutaneous, Testosterone = 100
# Procedure: Androgenic Activity was also evaluated using subcutaneous administration to immature castrated male rats (Testosterone=100).
# [3] = target: T2, estrogen receptor from immature female rat uterus (Rattus norvegicus, UniProt P06211); test: Estrogen RBA: relative binding to estrogen receptor; conditions: Estradiol = 100
# T2 construct: estrogen receptor from immature female rat uterus; from tissue; host or cells: immature female rat uterus
# T2 sequence (P06211 1-600): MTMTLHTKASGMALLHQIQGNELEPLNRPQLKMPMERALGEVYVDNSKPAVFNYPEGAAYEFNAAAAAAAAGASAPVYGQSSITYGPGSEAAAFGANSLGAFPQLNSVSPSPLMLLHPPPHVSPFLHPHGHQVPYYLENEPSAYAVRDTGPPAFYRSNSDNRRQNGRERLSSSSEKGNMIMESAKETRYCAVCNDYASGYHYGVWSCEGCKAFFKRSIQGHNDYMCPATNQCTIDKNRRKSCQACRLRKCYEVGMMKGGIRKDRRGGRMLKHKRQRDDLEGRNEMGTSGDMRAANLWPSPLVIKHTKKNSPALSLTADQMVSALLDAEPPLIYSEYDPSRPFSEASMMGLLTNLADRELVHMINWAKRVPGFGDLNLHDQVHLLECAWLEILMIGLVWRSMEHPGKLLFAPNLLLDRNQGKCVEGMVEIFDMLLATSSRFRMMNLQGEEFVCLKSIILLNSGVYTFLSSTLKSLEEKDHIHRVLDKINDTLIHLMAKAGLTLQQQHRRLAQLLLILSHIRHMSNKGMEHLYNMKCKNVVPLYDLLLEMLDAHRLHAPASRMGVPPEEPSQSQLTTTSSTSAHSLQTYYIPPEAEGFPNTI
# Procedure: as §1
# Male Rats = test: Long Term Androgenic Activity in Male Rats; format: in vivo, rat
smiles,measurement,setting,value
"C[C@@H]1CC2=CC(=O)CC[C@@H]2[C@@H]2[C@@H]1[C@@H]1CC[C@H](O)[C@@]1(C)C[C@@H]2C [RTI 1176-012, 7α,11β-dimethyl-17β-hydroxyestr-4-en-3-one]",Estrogenic Activity,immature female rats,0.8
same,Androgen RBA,[1],194
same,acute androgenic activity as compared with 7α-methyl-19-nortesterone,"[2]; in words, refers to Table 1",marked increase in acute androgenic activity
same,"Androgenic Activity, Levator Ani",[2],3800
same,"Androgenic Activity, Seminal Vesicles",[2],1540
same,"Androgenic Activity, Ventral Prostate",[2],1480
same,Estrogen RBA,[3],0.6
same,melting point,,149 to 151 °C
"CCCCCCC(=O)O[C@H]1CC[C@H]2[C@@H]3CCC4=CC(=O)CC[C@]4(C)[C@H]3CC[C@]12C [Testosterone enanthate, reference compound]",Final Body Weight (% change from control),"Male Rats; 0.6 mg, week 1 after dose",0%
same,Seminal Vesicle Weight (% change from control),"Male Rats; 0.6 mg, week 1 after dose",452%
same,Ventral Prostate Weight (% change from control),"Male Rats; 0.6 mg, week 1 after dose",409%
same,Final Body Weight (% change from control),"Male Rats; 0.6 mg, week 2 after dose",6%
same,Seminal Vesicle Weight (% change from control),"Male Rats; 0.6 mg, week 2 after dose",318%
same,Ventral Prostate Weight (% change from control),"Male Rats; 0.6 mg, week 2 after dose",339%
same,Final Body Weight (% change from control),"Male Rats; 0.6 mg, week 4 after dose",−7%
same,Seminal Vesicle Weight (% change from control),"Male Rats; 0.6 mg, week 4 after dose",281%
same,Ventral Prostate Weight (% change from control),"Male Rats; 0.6 mg, week 4 after dose",291%
same,Final Body Weight (% change from control),"Male Rats; 0.6 mg, week 6 after dose",0%
same,Seminal Vesicle Weight (% change from control),"Male Rats; 0.6 mg, week 6 after dose",248%
same,Ventral Prostate Weight (% change from control),"Male Rats; 0.6 mg, week 6 after dose",405%
same,Final Body Weight (% change from control),"Male Rats; 0.6 mg, week 8 after dose",6%
same,Seminal Vesicle Weight (% change from control),"Male Rats; 0.6 mg, week 8 after dose",187%
same,Ventral Prostate Weight (% change from control),"Male Rats; 0.6 mg, week 8 after dose",150%
same,Final Body Weight (% change from control),"Male Rats; 0.6 mg, week 10 after dose",0%
same,Seminal Vesicle Weight (% change from control),"Male Rats; 0.6 mg, week 10 after dose",179%
same,Ventral Prostate Weight (% change from control),"Male Rats; 0.6 mg, week 10 after dose",130%
"C[C@@H]1C[C@H]2CC(=O)CC[C@@H]2[C@@H]2[C@@H]1[C@@H]1CC[C@H](O)[C@@]1(C)C[C@@H]2C [RTI 1471-032, 7α,11β-dimethyl-17β-hydroxy-5α-estran-3-one]",Estrogenic Activity,immature female rats,0.7
same,"Androgenic Activity, Seminal Vesicles",[2],377
same,"Androgenic Activity, Ventral Prostate",[2],742
"CCCCCCC(=O)O[C@H]1CC[C@H]2[C@H]3[C@H]([C@@H](C)C[C@]12C)[C@H]1CCC(=O)C=C1C[C@H]3C [RTI 147-029, 7α,11β-dimethyl-17β-heptanoyloxyestr-4-en-3-one]",Final Body Weight (% change from control),"Male Rats; 0.3 mg, week 1 after dose",9%
same,Seminal Vesicle Weight (% change from control),"Male Rats; 0.3 mg, week 1 after dose",571%
same,Ventral Prostate Weight (% change from control),"Male Rats; 0.3 mg, week 1 after dose",368%
same,Final Body Weight (% change from control),"Male Rats; 0.3 mg, week 2 after dose",1%
same,Seminal Vesicle Weight (% change from control),"Male Rats; 0.3 mg, week 2 after dose",580%
same,Ventral Prostate Weight (% change from control),"Male Rats; 0.3 mg, week 2 after dose",582%
same,Final Body Weight (% change from control),"Male Rats; 0.3 mg, week 4 after dose",3%
same,Seminal Vesicle Weight (% change from control),"Male Rats; 0.3 mg, week 4 after dose",438%
same,Ventral Prostate Weight (% change from control),"Male Rats; 0.3 mg, week 4 after dose",583%
same,Final Body Weight (% change from control),"Male Rats; 0.3 mg, week 6 after dose",−1%
same,Seminal Vesicle Weight (% change from control),"Male Rats; 0.3 mg, week 6 after dose",603%
same,Ventral Prostate Weight (% change from control),"Male Rats; 0.3 mg, week 6 after dose",649%
same,Final Body Weight (% change from control),"Male Rats; 0.3 mg, week 8 after dose",−10%
same,Seminal Vesicle Weight (% change from control),"Male Rats; 0.3 mg, week 8 after dose",312%
same,Ventral Prostate Weight (% change from control),"Male Rats; 0.3 mg, week 8 after dose",340%
same,Final Body Weight (% change from control),"Male Rats; 0.3 mg, week 10 after dose",−2%
same,Seminal Vesicle Weight (% change from control),"Male Rats; 0.3 mg, week 10 after dose",426%
same,Ventral Prostate Weight (% change from control),"Male Rats; 0.3 mg, week 10 after dose",562%
same,Final Body Weight (% change from control),"Male Rats; 0.6 mg, week 1 after dose",15%
same,Seminal Vesicle Weight (% change from control),"Male Rats; 0.6 mg, week 1 after dose",968%
same,Ventral Prostate Weight (% change from control),"Male Rats; 0.6 mg, week 1 after dose",628%
same,Final Body Weight (% change from control),"Male Rats; 0.6 mg, week 2 after dose",6%
same,Seminal Vesicle Weight (% change from control),"Male Rats; 0.6 mg, week 2 after dose",1428%
same,Ventral Prostate Weight (% change from control),"Male Rats; 0.6 mg, week 2 after dose",778%
same,Final Body Weight (% change from control),"Male Rats; 0.6 mg, week 4 after dose",1%
same,Seminal Vesicle Weight (% change from control),"Male Rats; 0.6 mg, week 4 after dose",1222%
same,Ventral Prostate Weight (% change from control),"Male Rats; 0.6 mg, week 4 after dose",1145%
same,Final Body Weight (% change from control),"Male Rats; 0.6 mg, week 6 after dose",0%
same,Seminal Vesicle Weight (% change from control),"Male Rats; 0.6 mg, week 6 after dose",1777%
same,Ventral Prostate Weight (% change from control),"Male Rats; 0.6 mg, week 6 after dose",1810%
same,Final Body Weight (% change from control),"Male Rats; 0.6 mg, week 8 after dose",−16%
same,Seminal Vesicle Weight (% change from control),"Male Rats; 0.6 mg, week 8 after dose",1044%
same,Ventral Prostate Weight (% change from control),"Male Rats; 0.6 mg, week 8 after dose",858%
same,Final Body Weight (% change from control),"Male Rats; 0.6 mg, week 10 after dose",1%
same,Seminal Vesicle Weight (% change from control),"Male Rats; 0.6 mg, week 10 after dose",924%
same,Ventral Prostate Weight (% change from control),"Male Rats; 0.6 mg, week 10 after dose",749%
same,potency and duration of action as compared with testosterone enanthate,"Male Rats; in words, refers to Table 2",greater potency and longer duration of action
"C[C@@H]1CC2=CC(=O)CC[C@@H]2[C@H]2CC[C@]3(C)[C@@H](O)CC[C@H]3[C@@H]21 [RTI 1176-024, 7α-methyl-19-nortestosterone]","Androgenic Activity, Levator Ani",[2],2510
same,"Androgenic Activity, Seminal Vesicles",[2],790
same,"Androgenic Activity, Ventral Prostate",[2],609
"C=C1C[C@]2(C)[C@@H](O)CC[C@H]2[C@H]2[C@H]1[C@H]1CCC(=O)C=C1C[C@H]2C [RTI 1471-034, 17β-Hydroxy-7α-methyl-11-methyleneestr-4-en-3-one]",Androgen RBA,[1],176
same,"Androgenic Activity, Seminal Vesicles",[2],993
same,"Androgenic Activity, Ventral Prostate",[2],1519-2148
